Assay results: patent US11078188B2, “Dihydroquinoxaline bromodomain recognition protein inhibitor, preparation method and use thereof” (SHANGHAI INSTITUTE OF MATERIA MEDICA, CHINESE ACADEMY OF …, priority 2017, dated 2021)

What was measured:
[1] = tested on: human myeloma cells MM.1S; assay: MM.1S cell viability, CCK-8 method; format: cell-based; details: for IC50: 72 h treatment, CCK-8; for inhibitory activity against the MM.1S cell line (in words): compared with positive (+)-JQ1
Method: The MM.1S cell line was tested for cell viability. The test methods were as follows: human myeloma cells MM.1S were treated with compound for 72 h, and the proliferation inhibition effect and degree of the compound were detected by CCK-8 method.

[2] = Metabolic stability in human liver microsomes; format: in vitro ADME; details: human liver microsomes 0.5 mg/ml, 1 μM compound, NADPH
Method: The system which was 150 μl of human liver microsomes (final concentration: 0.5 mg/ml) was used for metabolic stability incubation. The system contained reduced coenzyme II (NADPH) (final concentration: 1 mM) and 1 μM compound, positive control or negative control. The reaction was terminated with acetonitrile containing (imiprozine, batch number: 3221; tinidazole, given) at 0 min, 5 min, 10 min, and 30 min, respectively. The mixture was vortexed for 10 min, centrifuged at 15000 rpm for 10 min, and 50 μl of the supernatant was injected into a 96-well plate. The metabolic stability of the compound was calculated by measuring the relative reduction in the original medicament.
(§1) HLM Clint (μl/min/mg) refers to the clearance rate of compounds in human liver microsomes having a unit of μl/min/mg; mLM Clint (μl/min/mg) refers to the clearance rate of compounds in mouse liver microsomes having a unit of μl/min/mg; HLM t1/2 (min) refers to the half-life of the compound in human liver microsomes having a unit of minutes; mLM t1/2 (min) refers to the half-life of the compound in mouse liver microsomes having a unit of minutes. TDI means that the mechanism inhibition test of compounds on CYP enzyme evaluates whether the compound has time-dependent inhibition of the enzyme.

[3] = Metabolic stability in mouse liver microsomes; format: in vitro ADME
3A4 = 3A4 (Homo sapiens (Human), UniProt P08684); assay: Direct inhibition test (DI test), CYP 3A4; format: in vitro ADME; details: human liver microsomes 0.2 mg/ml, 20 min; for Direct inhibition rate (%) 3A4, second value: second of two values a/b (two 3A4 probes midazolam, testosterone; assignment not given)
Chain of 3A4 (P08684 whole entry): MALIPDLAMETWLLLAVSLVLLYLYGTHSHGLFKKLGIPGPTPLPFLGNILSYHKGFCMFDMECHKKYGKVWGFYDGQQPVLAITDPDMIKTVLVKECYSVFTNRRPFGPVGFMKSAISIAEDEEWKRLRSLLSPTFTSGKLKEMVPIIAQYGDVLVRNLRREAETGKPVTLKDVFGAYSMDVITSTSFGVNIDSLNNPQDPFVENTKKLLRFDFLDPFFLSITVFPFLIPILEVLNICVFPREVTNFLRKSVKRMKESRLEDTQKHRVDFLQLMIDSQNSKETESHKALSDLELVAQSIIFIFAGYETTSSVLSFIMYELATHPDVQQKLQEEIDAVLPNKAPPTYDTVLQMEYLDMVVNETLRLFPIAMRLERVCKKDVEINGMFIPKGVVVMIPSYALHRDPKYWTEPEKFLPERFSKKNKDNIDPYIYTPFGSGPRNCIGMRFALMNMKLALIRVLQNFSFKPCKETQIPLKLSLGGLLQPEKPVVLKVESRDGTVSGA
Method: The system which was 100 μl of human liver microsomes (final concentration: 0.2 mg/ml) was used for direct inhibition incubation. The system contained NADPH (final concentration: 1 mM), 10 μl compound, positive inhibitor cocktail (ketoconazole, 10 μl, quinidine 10 μl, sulfaphenazole 100 μl, naphthoflavone 10 μl, tranylcypromine 1000 μl), negative control 10 μl DMSO and mixed probe substrate (midazolam 10 μl, testosterone 100 μl, dextromethorphan 10 μl, diclofenac 20 μl, phenacetin 100 μl, mephenytoin 100 μl). The reaction was stopped after the system was incubated for 20 min. The relative activity of the enzyme was calculated by measuring the relative amount of production of the metabolite.

CYP enzyme = assay: Mechanistic inhibition test (TDI test); format: in vitro ADME; details: human liver microsomes 0.2 mg/ml; mechanism inhibition if kobs greater than 200
Method: The system which was 200 μl of human liver microsomes (final concentration: 0.2 mg/ml) was used for mechanistic inhibition incubation. The system contained 10 μl compound, mixed positive inhibitor (Troleandomycin 10 μl, Paroxetine 10 μl, Tienilic acid 10 μM, Furafylline 10 μl) or 10 μl negative control PRO. After NADPH (final concentration: 1 mM) or PBS was added, the system was incubated for 0 min, 5 min, 10 min and 30 min, then NADPH (final concentration: 1 mM) and mixed probe substrate (Midazolam 5 μM, Testosterone 50 μl, Dextromethophan 5 μM, Diclofenac 10 μl, Phenacetin 5 0 μM, S-(+)-mephenytoin 50 μl) were added and incubated for 10 min. Then the reaction was stopped. The test for positive inhibitor CYP2C19 was carried out alone, the inhibitor S-(+)-fluoxetine was 100 μM. The enzyme activity was calculated by measuring the relative production amount of metabolite. kobs was calculated.
as §1

Structure (SMILES) | IC50 [1] | inhibitory activity against the MM.1S cell line (in words) [1] | HLM Clint [2] | HLM t1/2 [2] | MLM t1/2 [3] | mLM Clint [3] | Direct inhibition rate (%) 3A4, first value (3A4; first of two values a/b (two 3A4 probes midazolam, testosterone; assignment not given)) | Direct inhibition rate (%) 3A4, second value (3A4) | TDI (CYP enzyme) | IC50 ([1]; Homo sapiens, MM1.S) | microsomal CLint at 1 μM ([2]; read-out: HLM Clint) | half-life at 1 μM ([2]; read-out: HLM t1/2) | half-life at 1 μM ([3]; read-out: half-lives in mouse liver microsomes) | microsomal CLint at 1 μM ([3]; read-out: mLM Clint)
Cc1ccc(-n2nc(C(=O)N3CCN(C)CC3)nc2-c2ccc3c(c2)N(C2CCCC2)[C@H](C)C(=O)N3C)cc1 [Example 6] | 13.6 ± 5.45 nM | better inhibitory activity against the MM.1S cell line than the positive (+)-JQ1 | 61 µL/min/mg | 23 min | 41 min | 34 µL/min/mg | 22% | 31% | no | – | – | – | – | –
Cc1ccc(-n2nc(C(=O)N3C[C@@H](C)N[C@@H](C)C3)nc2-c2ccc3c(c2)N(C2CCCC2)[C@H](C)C(=O)N3C)cc1 [Example 12] | – | better inhibitory activity against the MM.1S cell line than the positive (+)-JQ1 | – | – | – | – | – | 28% | no | 5.42 ± 1.14 nM | 52 µL/min/mg | 27 min | 193 min | 7 µL/min/mg
